Laboratory results published in the NIST ThermoML archive (doi:10.1016/j.tca.2015.02.020).

Experiment: molar heat capacity at constant pressure; xn = mol fraction of the nth substance listed
Details: 101 kPa, Liquid, Small sample (50 mg) DSC

CC(O)CN (stereo unspecified) [1-amino-2-propanol] + O
Details | molar heat capacity at constant pressure [J/K/mol]
207.73 K, x1 = 0.68 | 127.89
209.98 K, x1 = 0.19 | 80.53
209.98 K, x1 = 0.26 | 88.72
210.13 K, x1 = 0.68 | 136.98
210.14 K, x1 = 0.16 | 76.29
212.31 K, x1 = 0.16 | 80.64
212.31 K, x1 = 0.19 | 81.68
212.31 K, x1 = 0.26 | 87.41
212.33 K, x1 = 0.15 | 76.55
212.46 K, x1 = 0.68 | 129.03
213.3 K, x1 = 0.19 | 80.82
213.3 K, x1 = 0.26 | 89.38
213.45 K, x1 = 0.16 | 76.84
213.45 K, x1 = 0.68 | 137.55
217.04 K, x1 = 0.19 | 82.55
217.04 K, x1 = 0.26 | 88.06
217.05 K, x1 = 0.16 | 81.72
217.07 K, x1 = 0.15 | 77.88
217.19 K, x1 = 0.68 | 129.59
219.93 K, x1 = 0.19 | 82.26
219.93 K, x1 = 0.26 | 90.36
220.08 K, x1 = 0.68 | 136.98
220.09 K, x1 = 0.16 | 76.56
221.78 K, x1 = 0.19 | 83.7
221.79 K, x1 = 0.16 | 83.08
221.79 K, x1 = 0.26 | 89.71
221.81 K, x1 = 0.15 | 79.21
221.94 K, x1 = 0.68 | 130.73
223.25 K, x1 = 0.19 | 82.84
223.25 K, x1 = 0.26 | 91.35
226.53 K, x1 = 0.16 | 84.44
226.53 K, x1 = 0.19 | 84.86
226.53 K, x1 = 0.26 | 91.02
226.55 K, x1 = 0.15 | 80.8
226.68 K, x1 = 0.68 | 132.44
229.89 K, x1 = 0.26 | 92.99
231.26 K, x1 = 0.19 | 86.01
231.26 K, x1 = 0.26 | 92.34
231.27 K, x1 = 0.16 | 85.52
231.3 K, x1 = 0.15 | 82.4
231.42 K, x1 = 0.68 | 133.57
233.2 K, x1 = 0.26 | 94.31
236.01 K, x1 = 0.16 | 86.88
236.01 K, x1 = 0.19 | 87.46
236.01 K, x1 = 0.26 | 93.65
236.04 K, x1 = 0.15 | 83.99
236.16 K, x1 = 0.68 | 135.28
239.85 K, x1 = 0.26 | 96.28
240.75 K, x1 = 0.16 | 88.51
240.75 K, x1 = 0.19 | 88.61
240.75 K, x1 = 0.26 | 94.96
240.78 K, x1 = 0.15 | 85.59
240.9 K, x1 = 0.68 | 136.98
243.17 K, x1 = 0.26 | 97.59
245.5 K, x1 = 0.16 | 89.6
245.5 K, x1 = 0.19 | 90.05
245.5 K, x1 = 0.26 | 96.61
245.53 K, x1 = 0.15 | 87.18
245.64 K, x1 = 0.68 | 138.69
249.82 K, x1 = 0.26 | 99.89
250.25 K, x1 = 0.16 | 90.95
250.25 K, x1 = 0.19 | 91.5
250.25 K, x1 = 0.26 | 97.92
250.28 K, x1 = 0.15 | 88.51
250.4 K, x1 = 0.68 | 140.39
253.15 K, x1 = 0.26 | 101.21
255 K, x1 = 0.16 | 91.77
255 K, x1 = 0.19 | 92.36
255 K, x1 = 0.26 | 99.24
255.03 K, x1 = 0.15 | 89.84
255.14 K, x1 = 0.68 | 142.67
259.75 K, x1 = 0.16 | 92.85
259.75 K, x1 = 0.19 | 93.81
259.75 K, x1 = 0.26 | 100.55
259.78 K, x1 = 0.15 | 90.9
259.8 K, x1 = 0.19 | 95.54
259.8 K, x1 = 0.26 | 103.51
259.89 K, x1 = 0.68 | 144.37
259.95 K, x1 = 0.16 | 93.4
259.95 K, x1 = 0.68 | 154.04
259.96 K, x1 = 0.15 | 93.83
263.13 K, x1 = 0.19 | 96.69
263.13 K, x1 = 0.26 | 104.82
263.27 K, x1 = 0.68 | 155.17
263.28 K, x1 = 0.16 | 94.48
263.29 K, x1 = 0.15 | 94.62
264.5 K, x1 = 0.16 | 93.94
264.5 K, x1 = 0.19 | 94.96
264.5 K, x1 = 0.26 | 101.87
264.53 K, x1 = 0.15 | 92.23
264.64 K, x1 = 0.68 | 146.65
269.26 K, x1 = 0.16 | 94.48
269.26 K, x1 = 0.19 | 95.83
269.26 K, x1 = 0.26 | 103.18
269.29 K, x1 = 0.15 | 93.29
269.4 K, x1 = 0.68 | 148.35
269.78 K, x1 = 0.19 | 98.71
269.79 K, x1 = 0.26 | 107.45
269.93 K, x1 = 0.68 | 158.01
269.94 K, x1 = 0.16 | 96.66
269.95 K, x1 = 0.15 | 96.75
273.12 K, x1 = 0.19 | 99.87
273.13 K, x1 = 0.26 | 108.44
273.27 K, x1 = 0.68 | 159.15
273.29 K, x1 = 0.15 | 97.28
273.29 K, x1 = 0.16 | 97.74
274.05 K, x1 = 0.16 | 95.3
274.05 K, x1 = 0.19 | 96.98
274.05 K, x1 = 0.26 | 104.49
274.09 K, x1 = 0.15 | 93.83
274.2 K, x1 = 0.68 | 150.62
278.96 K, x1 = 0.26 | 105.81
278.97 K, x1 = 0.16 | 96.11
278.97 K, x1 = 0.19 | 98.13
279 K, x1 = 0.15 | 94.89
279.12 K, x1 = 0.68 | 152.9
280 K, x1 = 0.19 | 101.02
280.01 K, x1 = 0.26 | 109.42
280.15 K, x1 = 0.68 | 160.29
280.17 K, x1 = 0.15 | 97.81
280.17 K, x1 = 0.16 | 98.83
283.44 K, x1 = 0.19 | 101.31
283.44 K, x1 = 0.26 | 110.08
283.59 K, x1 = 0.68 | 160.86
283.61 K, x1 = 0.16 | 99.37
283.62 K, x1 = 0.15 | 98.08
283.88 K, x1 = 0.16 | 96.38
283.88 K, x1 = 0.19 | 97.85
283.88 K, x1 = 0.26 | 106.79
283.92 K, x1 = 0.15 | 95.42
284.02 K, x1 = 0.68 | 155.17
